For data set [1], the system named is soybean plants containing event EE-GM5. As to the kind of experiment: HPPD inhibitor herbicide tolerance field trials (maximum phytotoxicity). Format: in vivo, soybean (Glycine max). The following applies: for average maximum phytotoxicity value: several field trials across 2 years; for tolerance of plants with EE-GM5 to the herbicide: field, different locations over 2 years. From the text: Numbers in ( ) below a treatment give the number of trials included in the bar, the number on top of each bar gives the average maximum phytotoxicity value for that treatment. Treatments applied were: IFT=isoxaflutole, MST=mesotrione, PE=pre-emergence, P0=post-emergence (at V2-V3 stage, with adjuvants crop oil concentrate and ammonium sulfate added to increase herbicide activity). Rates shown are in gram active ingredient/hectare (4× dose in pre-emergence, 2× dose in post-emergence).
Tolerance of plants comprising EE-GM5 to HPPD inhibitor herbicides was tested at different locations in the field over 2 years. […] All post-emergence treatments were at the V2-V3 stage, with adjuvants crop oil concentrate and ammonium sulfate added to increase herbicide activity.
The “maximum phytotoxicity” as used herein is the highest phytotoxicity rating recorded at any observation during the duration of a trial (with 3 to 4 observations per trial). In existing weed control applications, a normal (lx) dose for isoxaflutole (IFT) in pre- or post-emergence application and for MST in post-emergence application is 105 gr/ha, and a normal (lx) dose for mesotrione in pre-emergence application is 210 gr/ha.
Also, in several field trials across 2 years, soybean plants with event EE-GM5 had good tolerance towards experimental HPPD inhibitor compound 2-methyl-N-(5-methyl-1,3,4-oxadiazol-2-yl)-3-(methylsulfonyl)-4-(trifluoromethyl)benzamide (U.S. Pat. No. 9,101,141) when applied pre-emergence at 400 gr ai/ha or post-emergence at 200 gr ai/ha, respectively (the average maximum phytotoxicity value for each treatment was below 20%). […] All post-emergence treatments were at the V2-V3 stage, with adjuvants crop oil concentrate and ammonium sulfate added to increase herbicide activity.
Also, plants with EE-GM5 when treated post-emergent (V2-V3) with topramezone at 36 g ai/ha (+COC and AMS) in 2 field trials in the US gave an average maximum phytotoxicity of 11%, showing EE-GM5 also confers good tolerance to this HPPD inhibitor.

Data set [2] has the same test system. The description is as above. The data set is classed as in vivo, soybean (Glycine max). The following applies: 3rd year.
[3] abbreviates: applied post-emergence (V2-V3 stage, with adjuvants).

Experimental findings from patent US20210207161A1, “PLANTS CONTAINING ELITE EVENT EE-GM5 AND METHODS AND KITS FOR IDENTIFYING SUCH EVENT IN BIOLOGICAL SAMPLES, AND TREATMENT THEREOF” (priority 2018, published 2021) are described below.

On to `CSc1c(C(F)(F)F)ccc(C(=O)Nc2nnnn2C)c1Cl` [2-chloro-3-(methylsulfanyl)-N-(1-methyl-1H-tetrazol-5-yl)-4-(trifluoromethyl)benzamide], for which the average maximum phytotoxicity was determined as 20% in data set [1] (post-emergence (V2-V3) at 100-150 gr ai/ha, with crop oil concentrate and ammonium sulfate); 13.3% in data set [2] (post-emergence at 150 g/ha, 3 field trial locations, Thorne background).

Consider `Cc1nnc(NC(=O)c2ccc(C(F)(F)F)c(S(C)(=O)=O)c2C)o1` [2-methyl-N-(5-methyl-1,3,4-oxadiazol-2-yl)-3-(methylsulfonyl)-4-(trifluoromethyl)benzamide], for which the “average maximum phytotoxicity value” in data set [1] (post-emergence (V2-V3) at 200 gr ai/ha, with crop oil concentrate and ammonium sulfate) is “below 20%”; in data set [1] (pre-emergence at 400 gr ai/ha), “below 20%”.

Take `CS(=O)(=O)c1cc(C(F)(F)F)ccc1C(=O)c1cnoc1C1CC1` [isoxaflutole, (5-cyclopropyl-4-isoxazolyl)[2-(methylsulfonyl)-4-(trifluoromethyl)phenyl]methanone]: the “tolerance of plants with EE-GM5 to the herbicide” value in data set [1] (setting [3]) and in data set [1] (applied pre-emergence) was “commercially relevant tolerance” each time. The compound further yielded an average maximum phytotoxicity in data set [2] (post-emergence (V2-V3 stage), 210 h/ha, 4 locations, EE-GM5 in Thorne background) of 10.9%. This compound also gave a maximum phytotoxicity in data set [2] (pre-emergence, 410 g/ha, one field trial location, EE-GM5 in Thorne background) of 9%.

As to `CS(=O)(=O)c1ccc(C(=O)C2C(=O)CCCC2=O)c([N+](=O)[O-])c1` [mesotrione, 2-[4-(Methylsulfonyl)-2-nitrobenzoyl]cyclohexane-1,3-dione], the “tolerance of plants with EE-GM5 to the herbicide” value in data set [1] (setting [3]) and in data set [1] (applied pre-emergence) was “commercially relevant tolerance” in each case.

`Cc1c(C(=O)c2cnn(C)c2O)ccc(S(C)(=O)=O)c1C1=NOCC1` [topramezone, [3-(4,5-dihydro-3-isoxazolyl)-2-methyl-4-(methylsulfonyl)phenyl](5-hydroxy-1-methyl-1H-pyrazol-4-yl)methanone] registered an average maximum phytotoxicity in data set [1] (post-emergent (V2-V3) at 36 g ai/ha (+COC and AMS), 2 field trials in the US) of 11%.
